# Patent US12653795B1, “Bupropion as a modulator of drug activity” (ANTECIP BIOVENTURES II LLC, priority 2022, dated 2026)
# Assay: Pharmacokinetics after administration of the subject combination
# Settings: co-administered with bupropion; dextromethorphan 30 to 60 mg, bupropion 75 to 150 mg
# Text: In the subject combination, bupropion inhibits the metabolism of dextromethorphan via CYP2D6.
smiles,measurement,value
COc1ccc2c(c1)[C@]13CCCC[C@@H]1[C@H](C2)N(C)CC3 [dextromethorphan],pharmacokinetics at steady state (dose proportionality of AUC and Cmax),nonlinear pharmacokinetics
